US20230021483A1, “[…] […] METHOD AND CLASSIFICATION OF PHARMACEUTICAL COMPONENTS BY USING TRANSCRIPTOMES” (National Institutes of Biomedical Innovation, Health and …, priority 2016, published 2023)

What was measured:
[1] = test system: adjuvant-associated biological themes in LV, SP, LN
How it was run: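 Per-mouse whole-organ transcriptomes; genes with eij/ei(c)>2.0 tested for theme enrichment via TargetMine (GO, KEGG, Reactome, others), Fisher's exact test, Holm-Bonferroni correction. Themes shared by all three mice kept at p<0.05, using the smallest p. Score per adjuvant-associated term = Σ−log(p) of matching themes.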

liver (LV) = assay: Whole organ transcriptome (GeneChip microarray) of liver 6 h after adjuvant administration: sDEGs, hierarchical clustering; type: in vivo, C57BL/6 mice; conditions: for Number of gene probes with statistically significant changes (sDEGs), LV, Down / Number of gene probes with statistically significant changes (sDEGs), LV, Up: liver, 6 h after adjuvant; for Number of gene probes with statistically significant changes (sDEGs), LV, Down: fold change <0.667, p<0.01, customized PA call=1; for Number of gene probes with statistically significant changes (sDEGs), LV, Up: fold change >1.5, p<0.01, customized PA call=1; for cluster of strongly responding individual samples in LV (clustering exceptions): key: G1 (interferon signaling); G2 (metabolism of lipids and lipoproteins); G3 (response to stress); G4 (response to wounding); G5 (phosphate-containing compound metabolic process); G6 (phagosome)

K3: B class CpG ODN (ATCGACTCTCGAGCGTTCTC), TLR9 ligand (chemistry not given here)
tissue damage-associated annotations (cell death, wounding) in LNs ([1]; LN, i.d., fold change >2): did not induce cell death and wounding in LNs
IFN alpha, GO annotation line 1 of 5 ([1]; LV, ID): 0
IFN alpha, GO annotation line 2 of 5 ([1]; LV, ID): 0
IFN alpha: cellular response to interferon-alpha ([1]; LV, ID): 0
IFN alpha: positive regulation of interferon-alpha production ([1]; LV, ID): 0
IFN alpha: regulation of interferon-alpha production ([1]; LV, ID): 0
IFN beta: cellular response to interferon-beta ([1]; LV, ID): 0
IFN beta: interferon-beta production ([1]; LV, ID): 0
IFN beta: positive regulation of interferon-beta production ([1]; LV, ID): 0
IFN beta: regulation of interferon-beta production ([1]; LV, ID): 0
IFN beta: response to interferon-beta ([1]; LV, ID): 0
IFN gamma: cellular response to interferon-gamma ([1]; LV, ID): 0
IFN gamma: interferon-gamma production ([1]; LV, ID): 0
IFN gamma: regulation of interferon-gamma production ([1]; LV, ID): 0
IFN gamma: response to interferon-gamma ([1]; LV, ID): 0
NF-kappa B signaling pathway, GO annotation line 1 of 4 ([1]; LV, ID): 6.19
NF-kappa B signaling pathway, GO annotation line 2 of 4 ([1]; LV, ID): 0
NF-kappa B signaling pathway, GO annotation line 3 of 4 ([1]; LV, ID): 0
NF-kappa B signaling pathway, GO annotation line 4 of 4 ([1]; LV, ID): 0
TNF signaling pathway ([1]; LV, ID): 14.5
adaptive immune response, GO annotation line 1 of 5 ([1]; LV, ID): 0
adaptive immune response, GO annotation line 2 of 5 ([1]; LV, ID): 0
adaptive immune response, GO annotation line 3 of 5 ([1]; LV, ID): 0
adaptive immune response, GO annotation line 4 of 5 ([1]; LV, ID): 0
adaptive immune response, GO annotation line 5 of 5 ([1]; LV, ID): 0
apoptosis, GO annotation line 1 of 8 ([1]; LV, ID): 15.7
apoptosis, GO annotation line 2 of 8 ([1]; LV, ID): 10.1
apoptosis, GO annotation line 3 of 8 ([1]; LV, ID): 10.3
apoptosis, GO annotation line 4 of 8 ([1]; LV, ID): 0
apoptosis, GO annotation line 5 of 8 ([1]; LV, ID): 5.99
apoptosis, GO annotation line 6 of 8 ([1]; LV, ID): 3.19
apoptosis, GO annotation line 7 of 8 ([1]; LV, ID): 0
apoptosis, GO annotation line 8 of 8 ([1]; LV, ID): 0
cell death, GO annotation line 1 of 9 ([1]; LV, ID): 18.3
cell death, GO annotation line 2 of 9 ([1]; LV, ID): 13.9
cell death, GO annotation line 3 of 9 ([1]; LV, ID): 14.9
cell death, GO annotation line 4 of 9 ([1]; LV, ID): 10.5
cell death, GO annotation line 5 of 9 ([1]; LV, ID): 10.9
cell death, GO annotation line 6 of 9 ([1]; LV, ID): 7.25
cell death, GO annotation line 7 of 9 ([1]; LV, ID): 6.67
cell death, GO annotation line 8 of 9 ([1]; LV, ID): 0
cell death, GO annotation line 9 of 9 ([1]; LV, ID): 0
chemokine, GO annotation line 1 of 4 ([1]; LV, ID): 0
chemokine, GO annotation line 2 of 4 ([1]; LV, ID): 0
chemokine, GO annotation line 3 of 4 ([1]; LV, ID): 0
chemokine, GO annotation line 4 of 4 ([1]; LV, ID): 0
chemotaxis, GO annotation line 1 of 11 ([1]; LV, ID): 0
chemotaxis, GO annotation line 2 of 11 ([1]; LV, ID): 0
chemotaxis, GO annotation line 3 of 11 ([1]; LV, ID): 0
chemotaxis, GO annotation line 4 of 11 ([1]; LV, ID): 0
chemotaxis, GO annotation line 5 of 11 ([1]; LV, ID): 0
chemotaxis, GO annotation line 6 of 11 ([1]; LV, ID): 0
chemotaxis, GO annotation line 7 of 11 ([1]; LV, ID): 0
chemotaxis, GO annotation line 8 of 11 ([1]; LV, ID): 0
chemotaxis, GO annotation line 9 of 11 ([1]; LV, ID): 0
chemotaxis, GO annotation line 10 of 11 ([1]; LV, ID): 0
chemotaxis, GO annotation line 11 of 11 ([1]; LV, ID): 0
cytokine, GO annotation line 1 of 17 ([1]; LV, ID): 0
cytokine, GO annotation line 2 of 17 ([1]; LV, ID): 0
cytokine, GO annotation line 3 of 17 ([1]; LV, ID): 0
cytokine, GO annotation line 4 of 17 ([1]; LV, ID): 0
cytokine, GO annotation line 5 of 17 ([1]; LV, ID): 0
cytokine, GO annotation line 6 of 17 ([1]; LV, ID): 0
cytokine, GO annotation line 7 of 17 ([1]; LV, ID): 0
cytokine, GO annotation line 8 of 17 ([1]; LV, ID): 0
cytokine, GO annotation line 9 of 17 ([1]; LV, ID): 0
cytokine, GO annotation line 10 of 17 ([1]; LV, ID): 0
cytokine, GO annotation line 11 of 17 ([1]; LV, ID): 0
cytokine, GO annotation line 12 of 17 ([1]; LV, ID): 0
cytokine, GO annotation line 13 of 17 ([1]; LV, ID): 0
cytokine, GO annotation line 14 of 17 ([1]; LV, ID): 0
cytokine, GO annotation line 15 of 17 ([1]; LV, ID): 0
cytokine, GO annotation line 16 of 17 ([1]; LV, ID): 0
cytokine, GO annotation line 17 of 17 ([1]; LV, ID): 0
defense response, GO annotation line 1 of 11 ([1]; LV, ID): 0
defense response, GO annotation line 2 of 11 ([1]; LV, ID): 0
defense response, GO annotation line 3 of 11 ([1]; LV, ID): 0
defense response, GO annotation line 4 of 11 ([1]; LV, ID): 0
defense response, GO annotation line 5 of 11 ([1]; LV, ID): 0
defense response, GO annotation line 6 of 11 ([1]; LV, ID): 0
defense response, GO annotation line 7 of 11 ([1]; LV, ID): 0
defense response, GO annotation line 8 of 11 ([1]; LV, ID): 0
defense response, GO annotation line 9 of 11 ([1]; LV, ID): 0
defense response, GO annotation line 10 of 11 ([1]; LV, ID): 0
defense response, GO annotation line 11 of 11 ([1]; LV, ID): 0
immune response, GO annotation line 1 of 8 ([1]; LV, ID): 0
immune response, GO annotation line 2 of 8 ([1]; LV, ID): 0
immune response, GO annotation line 3 of 8 ([1]; LV, ID): 0
immune response, GO annotation line 4 of 8 ([1]; LV, ID): 0
immune response, GO annotation line 5 of 8 ([1]; LV, ID): 0
immune response, GO annotation line 6 of 8 ([1]; LV, ID): 0
immune response, GO annotation line 7 of 8 ([1]; LV, ID): 0
immune response, GO annotation line 8 of 8 ([1]; LV, ID): 0
inflammatory response, GO annotation line 1 of 5 ([1]; LV, ID): 0
inflammatory response, GO annotation line 2 of 5 ([1]; LV, ID): 0
inflammatory response, GO annotation line 3 of 5 ([1]; LV, ID): 0
inflammatory response, GO annotation line 4 of 5 ([1]; LV, ID): 0
inflammatory response, GO annotation line 5 of 5 ([1]; LV, ID): 0
innate immune response, GO annotation line 1 of 6 ([1]; LV, ID): 0
innate immune response, GO annotation line 2 of 6 ([1]; LV, ID): 0
innate immune response, GO annotation line 3 of 6 ([1]; LV, ID): 0
innate immune response, GO annotation line 4 of 6 ([1]; LV, ID): 0
innate immune response, GO annotation line 5 of 6 ([1]; LV, ID): 0
innate immune response, GO annotation line 6 of 6 ([1]; LV, ID): 0
interleukin-6: interleukin-6 production ([1]; LV, ID): 0
interleukin-6: positive regulation of interleukin-6 production ([1]; LV, ID): 0
interleukin-6: regulation of interleukin-6 production ([1]; LV, ID): 0
interleukin-12: interleukin-12 production ([1]; LV, ID): 0
interleukin-12: positive regulation of interleukin-12 production ([1]; LV, ID): 0
interleukin-12: regulation of interleukin-12 production ([1]; LV, ID): 0
migration, GO annotation line 1 of 10 ([1]; LV, ID): 0
migration, GO annotation line 2 of 10 ([1]; LV, ID): 0
migration, GO annotation line 3 of 10 ([1]; LV, ID): 0
migration, GO annotation line 4 of 10 ([1]; LV, ID): 0
migration, GO annotation line 5 of 10 ([1]; LV, ID): 0
migration, GO annotation line 6 of 10 ([1]; LV, ID): 0
migration, GO annotation line 7 of 10 ([1]; LV, ID): 0
migration, GO annotation line 8 of 10 ([1]; LV, ID): 0
migration, GO annotation line 9 of 10 ([1]; LV, ID): 0
migration, GO annotation line 10 of 10 ([1]; LV, ID): 0
stress, GO annotation line 1 of 3 ([1]; LV, ID): 12.9
stress, GO annotation line 2 of 3 ([1]; LV, ID): 0
stress, GO annotation line 3 of 3 ([1]; LV, ID): 0
wounding, GO annotation line 1 of 3 ([1]; LV, ID): 0
wounding, GO annotation line 2 of 3 ([1]; LV, ID): 0
wounding, GO annotation line 3 of 3 ([1]; LV, ID): 0
Number of gene probes with statistically significant changes (sDEGs), LV, Down (liver (LV); i.d. administration): 22
Number of gene probes with statistically significant changes (sDEGs), LV, Up (liver (LV); i.d. administration): 10
Number of gene probes with statistically significant changes (sDEGs), LV, Down (liver (LV); i.p. administration): 50
Number of gene probes with statistically significant changes (sDEGs), LV, Up (liver (LV); i.p. administration): 18
cluster of strongly responding individual samples in LV (clustering exceptions) (liver (LV); samples D35_ID_x2 and K3_ID_x3 only): G2
